Experimental findings from the NIST ThermoML archive (doi:10.1016/j.tca.2010.08.021) are described below.

Series [1] can be described thus: Molar enthalpy of transition or fusion. The settings on record: Crystal; DSC.
The conditions of series [2]: Crystal; visual observation.

Numbers after ± are expanded uncertainties.

Take `N#CCCC#N` [butanedinitrile]: the “Molar enthalpy of transition or fusion” value in series [1] worked out at 0.884 ± 0.0478 kcal/mol. Further, the Normal melting temperature in series [2] came out at 57.00 ± 1 °C.
Taken in the same sequence, the figures for `O=[N+]([O-])c1c(Cl)c(Cl)c(Cl)c(Cl)c1Cl` [pentachloronitrobenzene] were 4.59 ± 0.143 kcal/mol and 145.00 ± 1 °C.
